Data set [1] has as its target T1, ATase (Cricetulus griseus, UniProt P26186).
T1 construct: endogenous in cells; host or cells: Hamster +120 (V79 RJKO subline)
T1 sequence (P26186 1-209): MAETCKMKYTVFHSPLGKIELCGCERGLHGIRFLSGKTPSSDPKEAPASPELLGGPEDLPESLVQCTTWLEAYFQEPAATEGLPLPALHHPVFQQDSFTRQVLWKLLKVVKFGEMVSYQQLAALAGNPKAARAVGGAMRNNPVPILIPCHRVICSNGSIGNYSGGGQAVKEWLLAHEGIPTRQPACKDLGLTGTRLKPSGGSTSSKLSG
The data set can be described thus: Inactivation of ATase activity in Hamster +120 cells. Format: cell-based, Chinese hamster. To be noted: 2 hours at 37°C, read-out: Inactivation of ATase in Mammalian Cells I50(µM) Hamster + 120. The procedure:
Mammalian cells were cultured under standard conditions. For example, Raji (a human lymphoblastoid cell line from a Burkitt's lymphoma) cells were grown in suspension culture in RPMI medium supplemented with 10% horse serum. […]
Cells were diluted to 10^6/ml in culture medium containing either the appropriate concentration of inactivator or an equivalent volume of vehicle (DMSO). […] ATase activity was determined as described above, in duplicate sonicated cell extracts and expressed as the percentage activity remaining based on that present in the untreated controls (for example 350-450 fm/mg in Raji cells).

A short description of data set [2]: Growth inhibition of V79 cells by inactivator alone. As to conditions: chinese hamster, v79 cells, Figure 5. Format: cell-based, Chinese hamster. The procedure: In order to assess the effects on cell growth alone, Xeroderma pigmentosum cells and Chinese Hamster V79 cells were exposed to increasing concentrations (up to 600µM) of selected inactivators for 2h at 37°. In some cases, the inactivators were allowed to undergo hydrolysis at 37°C for 20 hours and then added to […] in order to assess the extent to which the decomposition products of the agents might inhibit cell growth. After 6 days the extent of cell growth was determined as described above.

Another data set relates to Raji cells. The data set can be described thus: Sensitization of Raji cells to temozolomide (XTT assay). It counts as cell-based, human. The procedure:
Following a 2 hour incubation at 37°C, medium containing either increasing doses of BCNU, temozolomide or equivalent vehicle was added and the cells allowed to grow for 6 days. At this time XTT solution was added and the cells incubated for a further 4 hours at 37°C. The resulting red/orange formazan reaction product was quantified by measuring absorption at 450nm on a microtitre platereader.
On the technique in general: Tetrazolium dyes change colour on reduction, which living cells bring about.

The test system of data set [3] is ATase. The data set can be described thus: Depletion of ATase activity in A375 tumour xenografts. It counts as in vivo, nude mice. To be noted: 30 mg/kg, 2 or 24 hours after administration, Fig. 8, in words. The protocol: (§1) 0X6 OPT, England (OLAC mice). […] For this reason lower doses were administered.
A375M (human melanoma) cells were grown in DMEM containing 10% fetal bovine serum. The cells were prepared for in vivo inoculation by incubation with 0.01% trypsin.
Cells (10^6) in 100µl of PBS were injected subcutaneously into the right-hand flank of 8-10 week old nu/nu athymic mice. These cells were allowed to develop into a tumour for 3-4 weeks for passaging into experimental animals. Tumour blocks measuring 2mm x 2mm x 2mm were implanted subcutaneously on the right hand flank. These animals were ready for use in inactivator experiments in 7-10 days.

Data set [4] in a line: Toxicity of inactivator in combination with BCNU in xenograft-bearing mice (survival). To be noted: Figs. 9-13, in words. It counts as in vivo, nude mice. The procedure:
as §1
Xenograft tumour measurements were taken every 1-2 days by workers using digital calipers. Tumour volume was calculated using the formula (h x w x 1) π/6. The experimental animals were also weighed every 1-2 days. Measurements continued until tumours in the control animals reached the maximum allowable volume (i.e. 1cm x 1cm x 1cm).

The next data set deals with human bone marrow cells. The data set can be described thus: Sensitization of bone marrow cells to temozolomide (GM-CFC assay). It counts as cell-based. To be noted: for sensitization effect on human bone marrow cells to temozolomide, compared with 0^6-benzylguanine: 10µM inactivator, Figure 14, in words. The source says:
For the granulocyte/macrophage colony-forming cell (GM-CFC) assay primary human bone marrow samples were obtained from patients undergoing cardiothoracic surgery. […] The colonies represented precursor cells of the granulocyte/macrophage lineage (huGM-CFC). Survival was expressed as a % of the number of colonies at zero dose temozolomide.

Entries after “also recorded” stand apart in the source; their conditions may differ.

Consider `Nc1nc(OCc2ccco2)c2nc[nH]c2n1` [B.4203, O^6-furfurylguanine], for which, at ATase [1], the IC50 amounted to 0.12 µM. Further, the selectivity ratio in data set [2] (read-out: growth inhibitory dose in V79 cells relative to the I50 dose) is at least 100. Besides, the MCC at 2 h in data set [2] (inactivator alone, up to 600µM, 2h at 37°, read-out: doses producing some growth inhibition of V79 cells) was above 100 µM.
`Nc1nc(OCc2cccs2)c2nc[nH]c2n1` [B.4205, O^6-thenylguanine]: the “sensitising Raji cells to the growth inhibitory effects of temozolomide, compared with BeG” value with Raji cells (0.1uM inactivator, Figure 3, in words) is listed as “more effective than BeG”. In addition, in the data set with Raji cells (inactivator 0.1 to 5.0µM, Figures 3 and 4, in words), the “dose response of sensitization of Raji cells to temozolomide” value was “lack of dose response”. Moreover, the “inactivating ATase in human melanoma xenografts grown in nude mice, compared with BeG” value with ATase [3] is listed as “as effective as BeG”. For the same molecule, the “toxicity in combination with BCNU in nude mice” value in data set [4] is listed as “substantially less toxic; also recorded: very little effect”. In addition, the “sensitization effect on human bone marrow cells to temozolomide, compared with 0^6-benzylguanine” value with human bone marrow cells (patient D) was “no differential”; in the data set with human bone marrow cells (patients C & E), “smaller sensitization effect than 0^6-benzylguanine”. Also, in the data set with human bone marrow cells (three samples tested (BeG: all three; B.4205: two of these), Fig. 14, in words), the “sensitization of GM-CFCs in human bone marrow samples to the toxic effects of temozolomide” value was “little or no sensitization”.

(Values after patent EP0702683B1, “06-SUBSTITUTED GUANINE DERIVATIVES, A PROCESS FOR THEIR PREPARATION AND THEIR USE IN TREATING TUMOUR CELLS” (Cancer Research Technology Limited, priority 1993, dated 1994).)
